From article PMC11167047 (Cell Death Discovery, 2024)

Tests used:
Experiment in all cases: kinome screen (33PanQinase)
Type in all cases: biochemical
ALK = target: T1, ALK (Homo sapiens, UniProt Q9UM73)
T1 construct: purchased Reaction Biology Europe GmbH (formerly ProQinase)
Method: (§1) The Kinome Screening was performed by Reaction Biology Europe GmbH (http://reactionbiology.com; Freiburg i. Br., Germany).

CDK18/CycY = target: T2, CDK18/CycY (Homo sapiens, UniProt Q07002)
T2 construct: purchased Reaction Biology Europe GmbH (formerly ProQinase)
Method: as §1

LTK = target: T3, LTK (Homo sapiens, UniProt P29376)
T3 construct: purchased Reaction Biology Europe GmbH (formerly ProQinase)
Method: as §1

MKNK1 = target: T4, MKNK1 (Homo sapiens, UniProt Q9BUB5)
T4 construct: purchased Reaction Biology Europe GmbH (formerly ProQinase)
Method: as §1

PKCΔ = target: T5, PKCΔ (Homo sapiens, UniProt Q05655)
T5 construct: purchased Reaction Biology Europe GmbH (formerly ProQinase)
Method: as §1

PRKG2 = target: T6, PRKG2 (Homo sapiens, UniProt Q13237)
T6 construct: purchased Reaction Biology Europe GmbH (formerly ProQinase)
T6 sequence (Q13237 1-762): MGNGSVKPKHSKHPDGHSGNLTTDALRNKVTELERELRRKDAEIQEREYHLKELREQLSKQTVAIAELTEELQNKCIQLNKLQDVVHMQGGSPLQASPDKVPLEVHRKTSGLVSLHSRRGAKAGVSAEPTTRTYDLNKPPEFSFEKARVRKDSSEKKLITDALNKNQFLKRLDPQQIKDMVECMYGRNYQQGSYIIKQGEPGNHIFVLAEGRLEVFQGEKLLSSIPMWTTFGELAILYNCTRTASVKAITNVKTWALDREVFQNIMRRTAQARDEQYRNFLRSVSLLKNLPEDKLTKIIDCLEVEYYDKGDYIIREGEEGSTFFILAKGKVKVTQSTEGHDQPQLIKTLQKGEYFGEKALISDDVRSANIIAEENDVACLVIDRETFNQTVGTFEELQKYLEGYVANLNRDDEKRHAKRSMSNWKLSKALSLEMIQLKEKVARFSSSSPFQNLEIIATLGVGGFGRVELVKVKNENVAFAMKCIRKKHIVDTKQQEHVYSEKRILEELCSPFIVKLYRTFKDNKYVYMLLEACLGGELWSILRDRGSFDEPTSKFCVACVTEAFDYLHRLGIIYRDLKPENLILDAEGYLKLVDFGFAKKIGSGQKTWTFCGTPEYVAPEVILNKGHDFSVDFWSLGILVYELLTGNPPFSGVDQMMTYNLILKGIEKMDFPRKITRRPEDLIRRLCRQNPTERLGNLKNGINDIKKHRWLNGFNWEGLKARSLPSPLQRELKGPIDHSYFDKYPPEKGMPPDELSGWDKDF
Method: as §1

SAK = target: T7, SAK (Homo sapiens, UniProt O00444)
T7 construct: purchased Reaction Biology Europe GmbH (formerly ProQinase)
T7 sequence (O00444 1-970): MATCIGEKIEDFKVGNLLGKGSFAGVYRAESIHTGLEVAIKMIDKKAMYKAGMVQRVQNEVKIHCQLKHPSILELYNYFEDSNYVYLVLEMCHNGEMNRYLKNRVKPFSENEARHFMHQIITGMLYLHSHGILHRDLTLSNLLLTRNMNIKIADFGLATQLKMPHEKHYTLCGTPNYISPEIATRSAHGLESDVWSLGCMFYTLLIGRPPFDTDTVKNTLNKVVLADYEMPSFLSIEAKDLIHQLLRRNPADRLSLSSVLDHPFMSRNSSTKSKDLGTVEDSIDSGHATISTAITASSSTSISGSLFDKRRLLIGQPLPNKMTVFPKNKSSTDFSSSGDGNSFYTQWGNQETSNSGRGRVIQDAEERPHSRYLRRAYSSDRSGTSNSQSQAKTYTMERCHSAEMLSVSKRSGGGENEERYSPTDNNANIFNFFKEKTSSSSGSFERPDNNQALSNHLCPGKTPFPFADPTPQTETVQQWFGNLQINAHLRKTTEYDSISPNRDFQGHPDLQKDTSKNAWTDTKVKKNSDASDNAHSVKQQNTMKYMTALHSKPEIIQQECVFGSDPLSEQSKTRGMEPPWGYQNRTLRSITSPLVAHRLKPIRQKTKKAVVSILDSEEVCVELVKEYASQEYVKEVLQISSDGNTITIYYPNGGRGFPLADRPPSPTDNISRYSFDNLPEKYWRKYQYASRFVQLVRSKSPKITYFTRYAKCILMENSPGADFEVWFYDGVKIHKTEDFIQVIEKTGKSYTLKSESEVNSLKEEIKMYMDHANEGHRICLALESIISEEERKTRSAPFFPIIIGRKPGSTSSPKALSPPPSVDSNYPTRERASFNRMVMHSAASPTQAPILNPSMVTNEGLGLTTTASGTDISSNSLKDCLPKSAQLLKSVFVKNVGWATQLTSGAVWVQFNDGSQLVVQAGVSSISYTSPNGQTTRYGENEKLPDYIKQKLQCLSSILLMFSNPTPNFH
Method: as §1

STK23 = target: T8, STK23 (Homo sapiens, UniProt Q9UPE1)
T8 construct: purchased Reaction Biology Europe GmbH (formerly ProQinase)
Method: as §1

T3 sequence (P29376 17-864): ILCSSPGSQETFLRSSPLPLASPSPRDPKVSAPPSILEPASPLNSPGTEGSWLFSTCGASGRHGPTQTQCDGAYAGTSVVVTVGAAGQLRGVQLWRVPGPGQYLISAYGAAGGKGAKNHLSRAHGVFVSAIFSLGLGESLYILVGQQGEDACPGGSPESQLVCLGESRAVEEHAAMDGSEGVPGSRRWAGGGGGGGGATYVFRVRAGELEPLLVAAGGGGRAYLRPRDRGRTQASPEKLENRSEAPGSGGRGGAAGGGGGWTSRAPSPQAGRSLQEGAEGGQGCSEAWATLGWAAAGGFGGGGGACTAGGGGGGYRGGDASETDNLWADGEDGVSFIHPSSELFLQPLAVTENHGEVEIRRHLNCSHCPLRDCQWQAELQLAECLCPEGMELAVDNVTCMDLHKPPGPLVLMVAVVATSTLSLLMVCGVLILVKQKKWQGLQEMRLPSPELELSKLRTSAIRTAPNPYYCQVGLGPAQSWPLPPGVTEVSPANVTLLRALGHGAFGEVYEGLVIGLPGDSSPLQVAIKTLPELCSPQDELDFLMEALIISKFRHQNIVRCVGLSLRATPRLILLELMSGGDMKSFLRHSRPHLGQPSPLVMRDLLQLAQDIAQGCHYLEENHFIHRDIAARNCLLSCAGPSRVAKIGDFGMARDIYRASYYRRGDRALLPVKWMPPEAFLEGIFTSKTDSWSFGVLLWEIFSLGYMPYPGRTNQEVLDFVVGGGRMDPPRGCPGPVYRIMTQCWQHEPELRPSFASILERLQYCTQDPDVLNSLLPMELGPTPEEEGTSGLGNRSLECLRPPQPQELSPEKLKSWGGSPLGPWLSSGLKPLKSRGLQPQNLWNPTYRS
T8 sequence (Q9UPE1 whole entry): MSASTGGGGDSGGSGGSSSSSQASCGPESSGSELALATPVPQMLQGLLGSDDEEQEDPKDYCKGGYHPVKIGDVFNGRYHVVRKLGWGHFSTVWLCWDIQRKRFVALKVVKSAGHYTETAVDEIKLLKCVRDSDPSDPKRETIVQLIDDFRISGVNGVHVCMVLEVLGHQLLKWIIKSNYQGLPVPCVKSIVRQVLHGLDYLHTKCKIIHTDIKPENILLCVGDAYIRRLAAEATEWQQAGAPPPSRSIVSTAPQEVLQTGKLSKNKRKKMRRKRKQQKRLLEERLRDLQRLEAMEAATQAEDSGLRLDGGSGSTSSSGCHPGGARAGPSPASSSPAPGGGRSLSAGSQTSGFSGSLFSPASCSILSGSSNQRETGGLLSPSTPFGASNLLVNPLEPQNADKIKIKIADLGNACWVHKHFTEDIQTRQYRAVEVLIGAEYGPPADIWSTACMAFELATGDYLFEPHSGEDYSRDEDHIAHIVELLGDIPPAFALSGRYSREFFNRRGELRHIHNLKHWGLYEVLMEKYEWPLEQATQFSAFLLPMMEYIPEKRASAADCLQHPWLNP
T2 sequence (Q07002 whole entry): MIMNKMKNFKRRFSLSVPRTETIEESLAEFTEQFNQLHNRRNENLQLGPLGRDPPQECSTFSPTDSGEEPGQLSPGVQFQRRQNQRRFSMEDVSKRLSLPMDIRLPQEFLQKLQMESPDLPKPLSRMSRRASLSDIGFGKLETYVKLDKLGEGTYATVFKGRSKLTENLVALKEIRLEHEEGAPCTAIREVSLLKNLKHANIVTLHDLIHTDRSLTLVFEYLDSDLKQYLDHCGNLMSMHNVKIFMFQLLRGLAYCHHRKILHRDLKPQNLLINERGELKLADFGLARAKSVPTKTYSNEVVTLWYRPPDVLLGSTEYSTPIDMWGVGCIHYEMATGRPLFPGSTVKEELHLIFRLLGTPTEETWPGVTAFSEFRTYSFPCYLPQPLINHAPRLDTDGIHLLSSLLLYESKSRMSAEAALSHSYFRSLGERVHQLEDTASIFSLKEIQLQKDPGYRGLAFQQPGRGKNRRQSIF
T2 sequence (Q8ND76 whole entry partner): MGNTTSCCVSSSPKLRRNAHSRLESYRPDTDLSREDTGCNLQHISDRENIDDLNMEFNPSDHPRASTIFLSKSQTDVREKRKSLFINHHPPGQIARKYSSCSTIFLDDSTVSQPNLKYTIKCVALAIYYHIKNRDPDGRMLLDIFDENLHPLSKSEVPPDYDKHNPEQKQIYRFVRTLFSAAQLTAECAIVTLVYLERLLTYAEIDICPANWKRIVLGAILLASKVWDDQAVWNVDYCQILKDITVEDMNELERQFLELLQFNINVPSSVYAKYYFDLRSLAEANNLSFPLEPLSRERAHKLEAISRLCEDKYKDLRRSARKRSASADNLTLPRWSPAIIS
T4 sequence (Q9BUB5 whole entry): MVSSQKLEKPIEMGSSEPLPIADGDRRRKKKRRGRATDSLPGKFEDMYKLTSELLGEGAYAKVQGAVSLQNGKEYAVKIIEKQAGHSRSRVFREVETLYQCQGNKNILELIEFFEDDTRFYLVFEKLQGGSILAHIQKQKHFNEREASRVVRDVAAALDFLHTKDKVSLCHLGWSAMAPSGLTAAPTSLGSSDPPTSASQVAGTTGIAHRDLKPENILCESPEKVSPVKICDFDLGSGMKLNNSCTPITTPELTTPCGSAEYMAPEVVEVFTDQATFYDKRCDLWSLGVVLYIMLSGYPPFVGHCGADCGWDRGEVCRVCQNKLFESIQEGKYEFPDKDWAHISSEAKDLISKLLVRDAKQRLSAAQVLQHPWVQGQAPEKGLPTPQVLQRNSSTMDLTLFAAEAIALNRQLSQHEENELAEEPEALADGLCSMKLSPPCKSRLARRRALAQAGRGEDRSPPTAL
T1 sequence (Q9UM73 19-1620): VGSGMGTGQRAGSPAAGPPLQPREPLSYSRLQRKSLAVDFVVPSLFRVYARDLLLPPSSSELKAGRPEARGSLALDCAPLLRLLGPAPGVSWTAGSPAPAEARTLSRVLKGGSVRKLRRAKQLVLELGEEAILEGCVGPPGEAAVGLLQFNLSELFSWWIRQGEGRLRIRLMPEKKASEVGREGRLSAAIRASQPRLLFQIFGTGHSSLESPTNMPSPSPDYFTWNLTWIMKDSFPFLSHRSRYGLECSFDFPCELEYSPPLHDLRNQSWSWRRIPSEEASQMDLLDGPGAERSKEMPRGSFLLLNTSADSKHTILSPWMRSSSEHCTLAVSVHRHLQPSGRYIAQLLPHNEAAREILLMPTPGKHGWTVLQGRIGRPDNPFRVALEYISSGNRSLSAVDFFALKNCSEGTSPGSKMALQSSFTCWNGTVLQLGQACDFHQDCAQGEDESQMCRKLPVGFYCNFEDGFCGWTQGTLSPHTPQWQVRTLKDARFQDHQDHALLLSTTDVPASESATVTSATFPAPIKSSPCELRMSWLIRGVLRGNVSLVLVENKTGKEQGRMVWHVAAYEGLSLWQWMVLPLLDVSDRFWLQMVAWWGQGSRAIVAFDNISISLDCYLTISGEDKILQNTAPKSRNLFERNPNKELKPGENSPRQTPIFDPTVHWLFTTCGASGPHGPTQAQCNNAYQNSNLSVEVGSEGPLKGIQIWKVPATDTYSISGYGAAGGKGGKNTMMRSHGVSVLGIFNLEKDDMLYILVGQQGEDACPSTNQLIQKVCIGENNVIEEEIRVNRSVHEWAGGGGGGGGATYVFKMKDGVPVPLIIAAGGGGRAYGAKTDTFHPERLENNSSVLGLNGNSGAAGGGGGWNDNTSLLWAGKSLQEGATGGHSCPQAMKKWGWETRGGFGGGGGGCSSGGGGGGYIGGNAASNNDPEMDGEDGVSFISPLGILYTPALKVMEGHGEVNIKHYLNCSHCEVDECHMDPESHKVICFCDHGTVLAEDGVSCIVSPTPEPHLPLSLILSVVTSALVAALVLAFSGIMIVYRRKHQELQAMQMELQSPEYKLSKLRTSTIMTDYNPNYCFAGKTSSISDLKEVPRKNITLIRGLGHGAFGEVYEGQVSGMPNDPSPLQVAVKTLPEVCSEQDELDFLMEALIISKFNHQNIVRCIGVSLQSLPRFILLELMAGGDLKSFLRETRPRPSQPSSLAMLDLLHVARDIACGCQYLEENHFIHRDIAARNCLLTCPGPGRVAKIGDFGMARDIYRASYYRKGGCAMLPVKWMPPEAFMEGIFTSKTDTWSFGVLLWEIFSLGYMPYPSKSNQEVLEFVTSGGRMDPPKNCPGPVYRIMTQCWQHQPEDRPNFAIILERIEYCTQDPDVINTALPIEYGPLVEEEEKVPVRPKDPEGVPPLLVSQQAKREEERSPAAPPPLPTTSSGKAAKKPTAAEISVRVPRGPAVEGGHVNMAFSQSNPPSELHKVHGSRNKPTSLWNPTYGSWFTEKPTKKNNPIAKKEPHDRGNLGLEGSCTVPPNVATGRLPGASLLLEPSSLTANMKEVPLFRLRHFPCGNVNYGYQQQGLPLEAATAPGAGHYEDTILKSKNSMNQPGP
T5 sequence (Q05655 whole entry, stated change not applied): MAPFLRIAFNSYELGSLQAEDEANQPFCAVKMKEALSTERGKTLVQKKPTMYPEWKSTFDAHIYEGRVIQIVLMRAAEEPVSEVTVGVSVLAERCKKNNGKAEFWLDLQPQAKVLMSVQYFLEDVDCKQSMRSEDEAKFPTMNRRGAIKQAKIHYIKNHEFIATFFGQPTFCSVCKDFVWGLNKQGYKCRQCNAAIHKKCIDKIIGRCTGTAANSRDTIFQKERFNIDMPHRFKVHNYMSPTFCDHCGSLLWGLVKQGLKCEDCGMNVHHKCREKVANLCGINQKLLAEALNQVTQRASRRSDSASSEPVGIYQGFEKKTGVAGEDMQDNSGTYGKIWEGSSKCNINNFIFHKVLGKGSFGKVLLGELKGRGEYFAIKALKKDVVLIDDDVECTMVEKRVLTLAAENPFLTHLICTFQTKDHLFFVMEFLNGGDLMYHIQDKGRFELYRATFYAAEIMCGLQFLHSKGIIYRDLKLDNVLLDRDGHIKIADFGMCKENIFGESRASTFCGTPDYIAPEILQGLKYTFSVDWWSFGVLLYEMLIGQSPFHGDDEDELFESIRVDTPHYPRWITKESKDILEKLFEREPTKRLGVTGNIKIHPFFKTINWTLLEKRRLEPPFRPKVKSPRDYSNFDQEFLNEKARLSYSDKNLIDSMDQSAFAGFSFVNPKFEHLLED

Row | SMILES | residual kinase activity (ALK; 0.3 µM) | residual kinase activity (CDK18/CycY; 0.3 µM) | residual kinase activity (LTK; 0.3 µM) | residual kinase activity (MKNK1; 0.3 µM) | residual kinase activity (PKCΔ; 0.3 µM) | residual kinase activity (PRKG2; 0.3 µM) | residual kinase activity (SAK; 0.3 µM) | residual kinase activity (STK23; 0.3 µM) | other results
1 | COc1ccnc2[nH]cc(-c3cc(N)nc(N)c3)c12 [meriolin 16] | 77 % of control | 5 % of control | 98 % of control | 70 % of control | 6 % of control | 7 % of control | 84 % of control | 78 % of control | residual kinase activity (ALK; 0.03 µM): 104 % of control; residual kinase activity (CDK18/CycY; 0.03 µM): 36 % of control; residual kinase activity (LTK; 0.03 µM): 110 % of control; residual kinase activity (MKNK1; 0.03 µM): 97 % of control; residual kinase activity (PKCΔ; 0.03 µM): 47 % of control; residual kinase activity (PRKG2; 0.03 µM): 48 % of control; residual kinase activity (SAK; 0.03 µM): 97 % of control; residual kinase activity (STK23; 0.03 µM): 109 % of control
2 | c1ccc(CNc2cc(-c3c[nH]c4ncccc34)ccn2)cc1 [meriolin 36] | 60 % of control | 6 % of control | 46 % of control | 48 % of control | 4 % of control | 14 % of control | 53 % of control | 95 % of control | residual kinase activity (ALK; 3 µM): 14 % of control; residual kinase activity (CDK18/CycY; 3 µM): 0 % of control; residual kinase activity (LTK; 3 µM): 11 % of control; residual kinase activity (MKNK1; 3 µM): 16 % of control; residual kinase activity (PKCΔ; 3 µM): 0 % of control; residual kinase activity (PRKG2; 3 µM): 2 % of control; residual kinase activity (SAK; 3 µM): 24 % of control; residual kinase activity (STK23; 3 µM): 88 % of control
